{"source": "patent EP0068324A2", "about": "“Microcapsule preparation for reducing increased intracranial pressure and a process for preparing the same” (Tanabe Seiyaku Co., Ltd., priority 1981, dated 1983)", "experiment": "in vivo", "settings": "mouse, po, mice, orally administered, measured one week after administration", "from_the_text": "The microcapsule preparation containing a propanol derivative of the present invention can reduce the intracranial pressure in an extremely small amount, which may be by a different mechanism from the hyperosmolar dehydrating effect by the known intravenous injection of a large amount of hypertonic solution, and the therapeutic effect is large and durable without showing any side effect such as a rebound increase of the intracranial pressure. The propanol derivative (I) of the present invention is low toxic and highly safeful."}
{"smiles": "COc1cc(NC(C)=O)ccc1OCC(O)CN1CCN(c2cccc(F)c2)CC1", "note": "(stereo not shown) [1-(4-Acetamido-2-methoxyphenoxy)-3-[4-(3-fluorophenyl)piperazino]-2-propanol]", "values": [{"measurement": "LD50 at 168 h", "value": "~1500", "unit": "mg/kg"}]}
